Data as given in paper PMC10135569, “Does Enhanced Structural Maturity of hiPSC-Cardiomyocytes Better for the Detection of Drug-Induced Cardiotoxicity?” (Biomolecules, 2023).

Tests used:
[1] = tested on: hiPSC-CMs (iCell2 Cardiomyocytes) 2D monolayers; assay: Membrane potential (action potential) recordings with FluoVolt voltage-sensitive dye on the CellOPTIQ platform; format: cell-based, human; conditions: for activity at 0.1 µM / activity at 0.3 µM / activity at 1 µM / activity at 3 µM: Homo sapiens, Cardiomyocyte, 0.5 h, 30 min, delta over DMSO 0.1%
Outline: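 iCell2 hiPSC-CM monolayers (50,000 cells/well on fibronectin or Matrix Plus, days 5–6) were loaded with FluoVolt (1:1000, 20 min, 37 °C) and imaged at 37 °C with 470 nm excitation and 510–560 nm emission sampled at 10 kHz. Spontaneous action potentials were recorded for 10 s at baseline and 30 min after drug, with one of four concentrations per well (n = 8).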

[2] = tested on: hiPSC-CMs (iCell2 Cardiomyocytes) 2D monolayers; assay: Contractility measurements using video imaging (ContractilityTool / MUSCLEMOTION); format: cell-based, human; conditions: for activity at 0.1 µM / activity at 0.3 µM / activity at 1 µM / activity at 3 µM: Homo sapiens, Cardiomyocyte, 0.5 h, 30 min, delta over DMSO 0.1%
Outline: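 Monolayers on fibronectin or Matrix Plus coating, tested on days 5–6 in serum-free medium. Four concentrations, one per well, n = 8, with vehicle control.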

[3] = listed in Supplementary Table S1; no reference given; cited from earlier work
[4] = 0.01–1 uM, two 2D monolayer models
[5] = FM monolayer, read-out: APD30 (%DD)
[6] = FM monolayer, read-out: APD90 (%DD)
[7] = FM monolayer, read-out: CL (%DD)
[8] = FM monolayer, read-out: Trise (%DD)
[9] = MM monolayer, read-out: APD30 (%DD)
[10] = MM monolayer, read-out: APD90 (%DD)
[11] = MM monolayer, read-out: CL (%DD)
[12] = MM monolayer, read-out: Trise (%DD)
[13] = FM monolayer, read-out: CtAmp (%DD)
[14] = FM monolayer, read-out: CtD50 (%DD)
[15] = MM monolayer, read-out: CtAmp (%DD)
[16] = MM monolayer, read-out: CtD50 (%DD)

C[C@@H]1CC(=O)NN=C1c1ccc(NN=C(C#N)C#N)cc1 [Levosimendan]
effects on electrical activity [1, 4]: no physiologically significant effects | activity at 0.1 µM [1, 5]: 102 ± 2.2% | activity at 0.1 µM [1, 6]: 96 ± 1.7% | activity at 0.1 µM [1, 7]: 95 ± 1.4% | activity at 0.1 µM [1, 8]: 97 ± 22.3% | activity at 0.3 µM [1, 5]: 101 ± 2.9% | activity at 0.3 µM [1, 6]: 94 ± 1.1% | activity at 0.3 µM [1, 7]: 93 ± 1.1% | activity at 0.3 µM [1, 8]: 80 ± 13.5% | activity at 1 µM [1, 5]: 94 ± 3% | activity at 1 µM [1, 6]: 93 ± 0.6% | activity at 1 µM [1, 7]: 93 ± 1.6% | activity at 1 µM [1, 8]: 65 ± 9.5% | activity at 3 µM [1, 5]: 99 ± 3.9% | activity at 3 µM [1, 6]: 94 ± 1% | activity at 3 µM [1, 7]: 97 ± 1.2% | activity at 3 µM [1, 8]: 101 ± 24.9% | activity at 0.1 µM [1, 9]: 97 ± 1.4% | activity at 0.1 µM [1, 10]: 96 ± 1.2% | activity at 0.1 µM [1, 11]: 99 ± 0.8% | activity at 0.1 µM [1, 12]: 107 ± 17.8% | activity at 0.3 µM [1, 9]: 100 ± 2.2% | activity at 0.3 µM [1, 10]: 100 ± 1% | activity at 0.3 µM [1, 11]: 97 ± 0.7% | activity at 0.3 µM [1, 12]: 121 ± 16.3% | activity at 1 µM [1, 9]: 95 ± 1.7% | activity at 1 µM [1, 10]: 98 ± 0.9% | activity at 1 µM [1, 11]: 97 ± 0.7% | activity at 1 µM [1, 12]: 96 ± 7.8% | activity at 3 µM [1, 9]: 93 ± 1.9% | activity at 3 µM [1, 10]: 98 ± 0.9% | activity at 3 µM [1, 11]: 98 ± 0.5% | activity at 3 µM [1, 12]: 114 ± 10.2% | effects on contractile activity [2, 4]: no physiologically significant effects | activity at 0.1 µM [2, 13]: 125 ± 20.8% | activity at 0.1 µM [2, 14]: 94 ± 3.2% | activity at 0.3 µM [2, 13]: 94 ± 9.6% | activity at 0.3 µM [2, 14]: 100 ± 2.4% | activity at 1 µM [2, 13]: 155 ± 32.5% | activity at 1 µM [2, 14]: 102 ± 2.7% | activity at 3 µM [2, 13]: 122 ± 26.6% | activity at 3 µM [2, 14]: 101 ± 1.8% | activity at 0.1 µM [2, 15]: 120 ± 12.4% | activity at 0.1 µM [2, 16]: 104 ± 2% | activity at 0.3 µM [2, 15]: 95 ± 8.1% | activity at 0.3 µM [2, 16]: 102 ± 1.3% | activity at 1 µM [2, 15]: 199 ± 27.2% | activity at 1 µM [2, 16]: 104 ± 2% | activity at 3 µM [2, 15]: 167 ± 33.5% | activity at 3 µM [2, 16]: 103 ± 2.3% | increasing the amplitude of contraction (positive inotropy) ([2]; both experimental groups): ineffective | contractile amplitude at higher concentrations (in words) ([2]; higher concentrations, FM and MM, not statistically significant): increased | change in amplitude of contraction at higher concentrations ([2]; higher concentrations, both groups, failed to reach significance): < 20% | Free Cmax [3]: 0.1 µM
